We go through 15 compounds from ChEMBL document CHEMBL1629429, “SAR studies of gymnasterkoreayne derivatives with cancer chemopreventive activities” (Bioorg Med Chem Lett, 2010).

The term IC50 denotes the midpoint of a concentration-inhibition curve.

The first test can be described thus: Chemoprevention index, ratio of IC50 for mouse Hepa-1c1c7 cells to drug level required to double specific NADPH:quinone reductase activity in mouse Hepa-1c1c7 cells. It counts as functional.
Turning to `CCC/C=C/C(O)C#CC#C[C@@H](O)[C@H](C)O` (some centres undefined), the “Ratio IC50” value is on record as 14.77.
Regarding `C=CCCCCC/C=C\C(O)C#CC#C[C@H](O)[C@H](C)O` (some centres undefined), the “Ratio IC50” value is listed as 18.39.
For `CCCCCC(O)C#CC#C[C@@H](O)[C@H](C)O` (relative stereo), the “Ratio IC50” value is listed as greater than 31.66.
`CCCCCCC(O)C#CC#C[C@@H](O)[C@H](C)O` (relative stereo): the “Ratio IC50” value came to 25.66.
Same read-out and setting: the value for `CC(C)=CC(O)C#CC#C[C@@H](O)[C@H](C)O` (relative stereo) was 17.02.
For `C[C@H](O)[C@H](O)C#CC#CC(O)C1CCCCC1` (relative stereo), the “Ratio IC50” value is reported as greater than 3.8.
Regarding `C[C@H](O)[C@H](O)C#CC#CC(O)c1ccccc1` (relative stereo), the “Ratio IC50” value is listed as greater than 13.57.
Regarding `C[C@H](O)[C@H](O)C#CC#CC(O)Cc1ccccc1` (relative stereo), the “Ratio IC50” value is recorded as greater than 8.64.
Same read-out and setting: as for `CCCCCCCCCC(O)C#CC#C[C@H](O)[C@H](C)O` (relative stereo), the figure is 30.13; as for `CCCCCC(O)C#CC#C[C@H](O)[C@H](C)O` (relative stereo), greater than 38.6; as for `C=CCCCCC/C=C\C(O)C#CC#C[C@@H](O)[C@H](C)O` (relative stereo), 10.51.
On the same count and under the same terms, the value for `CCCCCCCCCC(O)C#CC#C[C@@H](O)[C@H](C)O` (relative stereo) was 7.44; that for `C=CC(O)C#CC#C[C@@H](O)[C@H](C)O` (relative stereo) was 1.12; that for `C=CCCCCC/C=C\[C@H](O)C#CC#CC1OC1C` (some centres undefined) [GYMNASTERKOREAYNE B] was 9.57.

Another test in a line: Cytotoxicity against mouse Hepa-1c1c7 cells. It counts as cell-based.
On to `CCC/C=C/C(O)C#CC#C[C@@H](O)[C@H](C)O` (some centres undefined), for which half-maximal inhibition (IC50) was put at 422 µM.
Take `C=CCCCCC/C=C\C(O)C#CC#C[C@H](O)[C@H](C)O` (some centres undefined): half-maximal inhibition (IC50) was put at 252 µM.
In turn, `CCCCCCCCCC(O)CCCC[C@@H](O)[C@H](C)O` (some centres undefined) displayed an IC50 greater than 500 µM.
Still for that read-out and setting: as for `CCCCCC(O)C#CC#C[C@@H](O)[C@H](C)O` (relative stereo), the figure is greater than 500 µM.
As to `CCCCCCC(O)C#CC#C[C@@H](O)[C@H](C)O` (relative stereo), the midpoint of inhibition, the IC50, lay at 223 µM.
As to `CC(C)=CC(O)C#CC#C[C@@H](O)[C@H](C)O` (relative stereo), 406 µM corresponded to half-maximal inhibition (IC50).
`C[C@H](O)[C@H](O)C#CC#CC(O)C1CCCCC1` (relative stereo) gave an IC50 greater than 500 µM.
`C[C@H](O)[C@H](O)C#CC#CC(O)c1ccccc1` (relative stereo): the IC50 was greater than 500 µM.
Compound `C[C@H](O)[C@H](O)C#CC#CC(O)Cc1ccccc1` (relative stereo) had an IC50 greater than 500 µM.
On the same count and under the same terms, as for `CCCCCCCCCC(O)C#CC#C[C@H](O)[C@H](C)O` (relative stereo), the figure is 64.2 µM; as for `CCCCCC(O)C#CC#C[C@H](O)[C@H](C)O` (relative stereo), greater than 500 µM.
`C=CCCCCC/C=C\C(O)C#CC#C[C@@H](O)[C@H](C)O` (relative stereo) displayed an IC50 of 88.6 µM.
Compound `CCCCCCCCCC(O)C#CC#C[C@@H](O)[C@H](C)O` (relative stereo) yielded a concentration for half-maximal inhibition (IC50) of 39.8 µM.
With `C=CC(O)C#CC#C[C@@H](O)[C@H](C)O` (relative stereo), the IC50 was found to be 177 µM.
The same measure, in the same setting: the value for `C=CCCCCC/C=C\[C@H](O)C#CC#CC1OC1C` (some centres undefined) [GYMNASTERKOREAYNE B] was 70.6 µM.
